In PMC9964323, “New Titanocene (IV) Dicarboxylates with Potential Cytotoxicity: Synthesis, Structure, Stability and Electrochemistry” (International Journal of Molecular Sciences, 2023):
Entries after “also recorded” stand apart in the source; their conditions may differ.

How the values were obtained:
[1] = Cyclic voltammetry (reduction potentials); format: physicochemical; settings: for Ered, first reduction potential: first value of cell; for Ered, first reduction potential / Ered, second reduction potential: DMF, 0.05 M Bu4NClO4, glass-carbon electrode, vs Ag/AgCl/KCl (sat.), 100 mV/s, C = 1 × 10^−1 mol L^−1; for Ered, second reduction potential: second value of cell
Method: It was shown that, as expected, the reduction potentials of Ti (IV) for all compounds depend on the structure of the carboxylate-containing ligand, in particular, the presence of donor and acceptor substituents in the ligand benzene ring (Table 3).
Cyclic Voltammetry experiments were conducted using an IPC Pro M potentiostat (Russia) with cyclic voltammetry (CV) and rotating disk electrode (RDE) techniques. Glass-carbon (d = 2 mm) disks were used as the working electrodes, 0.05 M Bu4NClO4 solution in DMF served as the supporting electrolyte, and Ag/AgCl/KCl (sat.) was used as the reference electrode. The potential scan rates were 100 mV/s. Samples were dissolved in the predeaerated solvent.

[2] = Stability in aqueous media (hydrolysis followed by optical absorption at 330 nm); format: physicochemical; settings: 0.4 mM, 10% DMSO 90% water
Excerpt: The decrease in the concentration of the coordination compound was estimated from the decrease in the optical absorption at a wavelength of 330 nm. We considered it inappropriate to use the optical absorption maximum in the range of 230–300 nm for similar purposes because the absorption of the initial coordination compound, free carboxylate-containing ligands, and cyclopentadiene may overlap in this region.
Stability in aqueous media was studied by recording the full optical absorption spectra of solutions of the studied titanocene derivatives with an initial concentration of 0.4 mM in the solvent system (10% DMSO 90% water) at different time intervals. The change in the concentration of the studied compound was evaluated by the decrease in optical absorption at a wavelength of 330 nm. Full absorption spectra of studied compounds are presented as Figure S7 in the Supplementary Materials.

[3] = system: Ehrlich ascites carcinoma; set-up: method as in PMID 111586; settings: cited from earlier work
[4] = set-up: method as in PMID 9704729, PMID 9829732; settings: phase I clinical trials; cited from earlier work
[5] = system: adenocarcinoma of the lung, breast, and gastrointestinal tract; set-up: method as in PMID 111586, PMID 7988618; settings: cited from earlier work
[6] = system: platinum-resistant cell lines; set-up: method as in PMID 8499130; settings: cited from earlier work
[7] = system: metastatic breast and colon tumors; settings: phase II clinical trials, dose of 240 mg/m^2; cited from earlier work

Row | Molecule | Ered, first reduction potential [1] | Ered, second reduction potential [1] | hydrolysis rate / stability in aqueous media [2] | other results
1 | O=C([O-])c1ccccc1.O=C([O-])c1ccccc1.[Ti+4].c1cc[cH-]c1.c1cc[cH-]c1 [2a, bis(η^5-cyclopentadienyl)bis(benzoato)titanium(IV)] | −0.85 V | −2.17 V | – | –
2 | [N-]=[N+]=Nc1ccc(C(=O)[O-])cc1.[N-]=[N+]=Nc1ccc(C(=O)[O-])cc1.[Ti+4].c1cc[cH-]c1.c1cc[cH-]c1 [2c, bis(η^5-cyclopentadienyl)bis(4-azidobenzoato)titanium(IV)] | −0.78 V | −2.01 V | – | –
3 | O=C([O-])c1cccc(F)c1.O=C([O-])c1cccc(F)c1.[Ti+4].c1cc[cH-]c1.c1cc[cH-]c1 [2d, bis(η^5-cyclopentadienyl)bis(3-fluorobenzoato)titanium(IV)] | −0.79 V | −2.05 V | – | –
4 | O=C([O-])c1c(F)c(F)c(F)c(F)c1F.O=C([O-])c1c(F)c(F)c(F)c(F)c1F.[Ti+4].c1cc[cH-]c1.c1cc[cH-]c1 [2e, bis(η^5-cyclopentadienyl)bis(pentafluorobenzoato)titanium(IV)] | −0.57 V | −1.81 V | hydrolyzed more slowly than compound 2b; also recorded: slower | half-life time in water [2]: approximately 3 h
5 | CC(=O)Oc1ccccc1C(=O)[O-].CC(=O)Oc1ccccc1C(=O)[O-].[Ti+4].c1cc[cH-]c1.c1cc[cH-]c1 [2f, bis(η^5-cyclopentadienyl)bis(2-acetoxybenzoato)titanium(IV)] | −0.81 V | −2.11 V | – | –
6 | [Cl-].[Cl-].[Ti+4].c1cc[cH-]c1.c1cc[cH-]c1 [Cp2TiCl2, Titanocene dichloride] | −0.62 V | −1.85 V | lower stability in aqueous media compared to the carboxylate-containing analogues | cure ([3]; Ehrlich ascites carcinoma inoculated into mice): 80%; side effects associated with drug toxicity ([3]; Ehrlich ascites carcinoma inoculated into xenograft mice): no noticeable side effects; dose-dependent side effects [4]: mild nephrotoxicity, fatigue, and bilierubinimia; cytotoxicity [5]: pronounced cytotoxicity; cytotoxicity [6]: pronounced cytotoxicity; therapeutic effect [7]: did not show a therapeutic effect
7 | bis(η^5-cyclopentadienyl)bis(4-benzoxybenzoato)titanium(IV) [2b] | −0.88 V | −2.21 V | – | half-life time in water [2]: approximately 3 h
8 | bis(η^5-cyclopentadienyl)salicylatotitanium(IV) [2g] | −0.90 V | – | Hydrolysis proceeds slowly | Reversibility of reduction ([1]; CV in DMF): reversibly reduced and oxidized and rev
